Assay results as given in patent publication US10647680B2, “Urea compound, preparation method therefor and medical use thereof” (Ancureall Pharmaceutical (Shanghai) Co., Ltd., priority 2016, dated 2020).

Experiments:
Type in all cases: cell-based
SK-BR-3 (HER2/ErbB2 amp) = experiment: In vitro growth inhibition (GI50), SK-BR-3; settings: Homo sapiens, SK-BR3, HER2/ErbB2 amp+
Source text: (§1) Tumor cell line is an effective cell model for studying the inhibition of tumor cell growth or proliferation in vitro. In the present invention, a representative tumor cell line was selected to determine the cell growth inhibition activity of the present compound. All cell lines used were from ATCC, DSMZ, and the Cell Bank of the Chinese Academy of Sciences. Cell culture conditions and methods were in accordance with the requirements of each cell line. Cells were subcultured in vitro for no more than 3 passages each time, and as required, single-clone purification and identification of cell lines could be carried out.
(§2) The cell culture media used were RPMI1640 (Gibco), MEM (Gibco), McCOY'S5A (Gibco), and IMDM (Gibco). The complete medium was prepared by supplement with 5˜20% fetal calf serum (Gibco), 1% double-antibiotics (10000 units/mL penicillin and 10000 units/mL), 2 mM glutamine or 1 mM sodium pyruvate, respectively.
(§3) Human gastric cancer cell line NCI-N87 (HER2/ErbB2 amp, ATCC), human breast cancer cell line HCC1954 (HER2/ErbB2 amp, ATCC) and ZR-75-30 (HER2/ErbB2 amp, ATCC), human adenocarcinoma cell line AU565 (HER2/ErbB2 amp, ATCC), human lung squamous cell carcinoma cell line NCI-H2170 (HER2/ErbB2 amp, ATCC), human bronchioalveolar adenocarcinoma cell line NCI-H1781 (HER2/ErbB2 Ins G776V,C mutant type, ATCC) were cultured with a 1×RPMI1640 complete medium (10% FBS), respectively. Human lung adenocarcinoma cell line Calu-3 (HER2/ErbB2 amp, ATCC) was cultured with 1×MEM, 10% FBS, 1% double antibody, 1% NEAA (Gibco), 2 mM glutamine and 1 mM sodium pyruvate. The human breast cancer cell line SK-BR-3 (HER2/ErbB2 amp, ATCC) was cultured with a McCOY'S5A complete medium (10% FBS).
(§4) Adherent cells were digested with 0.25% pancreatin-EDTA (Gibco). The suspension cells were collected by centrifugation. The supernatant was discarded and the cell pellet was resuspended and counted. Different cell concentrations (5˜10×10^4 cells/mL) were prepared according to the growth cycle of each cell line and then seeded on a 96-well plate (Corning), 100 μL/well. The cells were incubated overnight at 37° C., 5% CO2. The compounds were added to the cells on the second day with 2 wells in parallel. The final concentration of organic solvent shall not exceed 1%. The cells were continually incubated for 3 to 5 days, and then subjected to MTT assay.
(§5) The compound of the present invention and the control compound were dissolved in DMSO (Sigma) respectively, with the purity of more than 98%. The compound was stored in a concentration of 10 mM at −20° C. and diluted to 2- or 10-fold series prior to use.
(§6) Dojindo CCK8 reagent kit was used as MTT assay. THERMO […] FC meter was used as microplate reader.
(§7) For adherent cells, culture medium was removed and immediately replaced with the fresh prepared medium which contains 10% CCK8 reagent (100 μL/well). For the suspension cells, CCK8 was directly added to 10% of the final concentration. The cells were continually incubated for 1˜4 h. When a dark yellow color could be observed in the solvent control wells, the absorbance value at OD450 nm was measured and the cell growth rate was calculated according to the following formula: Cell Growth Rate (%)=100*(T−T0)/(C−T0) T=optical density of drug treatment cell well—optical density of blank control well; T0=optical density of cell well before drug treatment—optical density of blank control well; C=optical density of cell well of solvent control group—optical density of blank control well. The concentration value of 50% inhibition of cell growth (GI50) was calculated according to the drug concentration and cell growth rate curve. The experiment was independently repeated 1˜3 times, and subject to biological statistical analysis. 4. Experimental Results
(§8) Tumor cell growth inhibition test was performed by selecting representative compounds (compounds 4, 11, 12, 16, 27, 68, 71, 77, 79, 89 and 116 of the present invention). […]

[1] = system: A375 (BRAF V600E mutant type); experiment: In vitro growth inhibition (GI50), A375; settings: Homo sapiens, A-375
Source text: as §1, §2
Human large cell lung cancer cell NCI-H460 (KRAS […] mutant type, ATCC), human non-small cell lung cancer cell line H1299 (NRAS Q61K mutant type, ATCC), human melanoma cell line A375 (BRAF V600E mutant type, Shanghai Cell Bank of Chinese Academy of Sciences), human colon cancer cell line HCT116 (KRAS G13D mutant type, Shanghai Cell Bank, Chinese Academy of Sciences) were cultured in a complete medium of 1×RPMI1640 (10% FBS), respectively. Human non-small cell lung cancer cells A549 (KRAS G12S mutant type, Shanghai Cell Bank, Chinese Academy of Sciences) were cultured in a complete medium of 1× Ham's supplemented with 10% FBS, 1% double antibody, and 2 mM glutamine.
as §4, §5, §6, §7
Tumor cell growth inhibition test was performed by selecting representative compounds (compounds 4, 11, 12, 16, 27, 68, 71, 77, 79, 89 and 116 of the present invention). The initial concentration of the compound was 5,000 nM, then it was serially diluted by 2-fold or 10-fold to 0.01 nM. […]

[2] = system: ZR-75-30 (HER2/ErbB2 amp); experiment: In vitro growth inhibition (GI50), ZR-75-30; settings: Homo sapiens
Source text: as §1, §2, §3, §4, §5, §6, §7, §8

[3] = system: NCI-H2170 (HER2/ErbB2 amp); experiment: In vitro growth inhibition (GI50), NCI-H2170; settings: Homo sapiens
Source text: as §1, §2, §3, §4, §5, §6, §7, §8

Measured: GI50

CC(C)(C)c1cc(NC(=O)Nc2ccc(-n3cnc4cc(OCCO)ccc43)cc2)no1 [Compound 11, 1-(5-tert-butyl-isoxazol-3-yl)-3-{4-[5-(2-hydroxy-ethoxyl)-benzimidazol-1-yl]-phenyl]-urea]
> 2500 nM: all assays above

COc1ccc2c(c1)ncn2-c1ccc(NC(=O)Nc2cc(C(C)(C)C)n[nH]2)cc1 [Compound 71, 1-(5-tert-butyl-2H-pyrazol-3-yl)-3-[4-(5-methoxyl-benzimidazol-1-yl)-phenyl]-urea]
> 2500 nM: all assays above

CC(C)(C)c1cc(NC(=O)Nc2ccc(-n3cnc4cc(O)ccc43)cc2)no1 [Compound 4, 1-(5-tert-butyl-isoxazol-3-yl)-3-[4-(5-hydroxy-benzimidazol-1-yl)-phenyl]-urea]
> 2500 nM: all assays above

COCCOc1ccc2c(c1)ncn2-c1ccc(NC(=O)Nc2cc(C(C)(C)C)n[nH]2)cc1 [Compound 77, 1-(5-tert-butyl-2H-pyrazol-3-yl)-3-{4-[5-(2-methoxyl-ethoxyl)-benzimidazol-1-yl]-phenyl}-urea]
> 2500 nM: all assays above

CC(C)(C)c1cc(NC(=O)Nc2ccc(-n3cnc4cc(OCCO)ccc43)cc2)[nH]n1 [Compound 79, 1-(5-tert-butyl-2H-pyrazol-3-yl)-3-{4-[5-(2-hydroxy-ethoxyl)-benzimidazol-1-yl]-phenyl]urea]
> 2500 nM: all assays above

CC(C)(C)c1cc(N)n(C(=O)Nc2ccc(-n3cnc4ccccc43)cc2)n1 [Compound 116, 5-amino-3-tert-butyl-pyrazol-1-carboxylic acid (4-benzimidazol-1-yl-phenyl)-amide]
> 2500 nM: all assays above

CC(C)(C)c1cc(NC(=O)Nc2ccc(-n3cnc4ccc(OCCN5CCOCC5)cc43)cc2)no1 [Compound 27, 1-(5-tert-butyl-isoxazol-3-yl)-3-{4-[6-(2morpholin-4-yl-ethoxyl)-benzimidazol-1-yl]-phenyl}-urea]
> 2500 nM: all assays above

CC(C)(C)c1cc(NC(=O)Nc2ccc(-n3cnc4ccccc43)cc2)[nH]n1 [Compound 68, 1-(4-benzimidazol-1-yl-phenyl)-3-(5-tert-butyl-2H-pyrazol-3-yl)-urea]
> 2500 nM: all assays above

CC(C)(C)c1cc(NC(=O)Nc2ccc(-n3cnc4cc(OCCN5CCOCC5)ccc43)cc2)no1 [Compound 16, 1-(5-tert-butyl-isoxazol-3-yl)-3-{4-[5-(2-morpholin-4-yl-ethoxyl)-benzimidazol-1-yl]-phenyl}-urea]
> 2500 nM: all assays above

CC(C)(C)c1cc(NC(=O)Nc2ccc(-n3cnc4cc(OCCN5CCOCC5)ccc43)cc2)[nH]n1 [Compound 89, 1-(5-tert-butyl-2H-pyrazol-3-yl)-3-{4-[5-(2-morpholin-4-yl-ethoxyl)-benzimidazol-1-yl]-phenyl}-urea]
> 2500 nM: all assays above
